The source of these data is patent publication US6407129B1, “Azole compounds, their production and their use” (Takeda Chemical Industries, Ltd., priority 1997, dated 2002).

Common to all, as to type: in vivo
Experiment [1] relates to Candida albicans TA. The experiment is described as follows: Protective effect against experimental Candida albicans TA infection in mice, intravenous administration (Experiment 1). Particulars: Crj:CDF1 female mice, compound in 5% glucose given intravenously immediately after infection, Reed and Muench from survival rates on day 7. On the procedure:
Method: Five-week-old Crj:CDF1 female mice were infected intravenously with minimum lethal dose of Candida albicans TA. The test compounds were dissolved in 5% glucose solution and were administered intravenously to the mice immediately after infection. Protective effects of the compounds were expressed as 50% effective dose (ED50) calculated using the method of Reed and Muench from survival rates on day 7 after infection.

In experiment [2] the test system is Candida albicans TA. The experiment is described as follows: Protective effect against experimental Candida albicans TA infection in mice, oral administration (Experiment 2). Particulars: Crj:CDF1 female mice, i.v. infection, compound in 5% glucose given orally immediately after infection; Reed and Muench from survival rates on day 7. On the procedure: Method: Five-week-old Crj:CDF1 female mice were infected intravenously with minimum lethal dose of Candida albicans TA. The test compounds were dissolved in 5% glucose solution and were administered orally to the mice immediately after infection. Protective effects of the compounds were expressed as 50% effective dose (ED50) calculated using the method of Reed and Muench from survival rates on day 7 after infection.

Experiment [3] concerns Candida albicans T.A. The experiment is described as follows: Protective effect at a single dose of 1.04 μmol/kg against experimental Candida albicans TA infection in mice (Experiment 3). Particulars: n = 5 mice; for Mean survival day of the mice which died, i.v. / No. of survivors, i.v.: 1.04 μmol/kg i.v.; for Mean survival day of the mice which died, i.v. / Mean survival day of the mice which died, p.o.: mice which had died up to 7 days after infection; for No. of survivors, i.v. / No. of survivors, p.o.: survivors on day 7 after infection; for Mean survival day of the mice which died, p.o. / No. of survivors, p.o.: 1.04 μmol/kg p.o. As for the experimental part:
Method: Five-week-old Crj:CDF1 female mice were infected intravenously with minimum lethal dose of Candida albicans T.A. The test compounds were dissolved in 5% glucose solution and were administered intravenously (i.v.) or orally (p.o.) to the mice at a dose of 1.04 μmol/kg immediately after infection. Protective effect of each compound were expressed as the number of survivors on day 7 after infection and the mean survival days of the mice which had died up to 7 days after infection.
The protective effect of the reference compound shown in figure (V) is included in Table 7. The reference compound was suspended in 0.5% sodium carboxymethyl cellulose and was administered orally to the mice at a dose of 1.04 μmol/kg immediately after infection.

In the case of “1-[(2R,3R)-2-(2,4-difluorophenyl)-2-hydroxy-3-[2-oxo-3-[4-(1H-1,2,3-triazol-1-yl)phenyl]-1-imidazolidinyl]butyl]-4-[(2,2-dimethylpropanoyloxy)methyl]-1H-1,2,4-triazolium chloride [Compound 1]”, in experiment [1], the ED50 i.v. was 2.3 µmol/kg. The ED50 p.o. in experiment [2] was determined as 2.9 µmol/kg.
Turning to “1-[(2R,3R)-2-(2,4-difluorophenyl)-2-hydroxy-3-[2-oxo-3-[4-(1H-tetrazol-1-yl)phenyl]-1-imidazolidinyl]butyl]-4-(isopropoxycarbonyloxy)methyl-1H-1,2,4-triazolium chloride [Compound 18]”, in experiment [3], the “Mean survival day of the mice which died, i.v.” value (from here on “Mean survival day … i.v.”) turned out to be 5.5 days; the “No. of survivors, i.v.” value was found to be 3; the “Mean survival day of the mice which died, p.o.” value (shortened to “Mean survival day … p.o.”) came to 4.5 days; the “No. of survivors, p.o.” value was found to be 3.
Regarding `C[C@@H](N1CCN(c2ccc(-n3cnnn3)cc2)C1=O)[C@](O)(C[n+]1cn(COC(=O)C(C)(C)C)cn1)c1ccc(F)cc1F.[Cl-]` [Compound 2, 1-[(2R,3R)-2-(2,4-difluorophenyl)-2-hydroxy-3-[2-oxo-3-[4-(1H-tetrazol-1-yl)phenyl]-1-imidazolidinyl]butyl]-4-[(2,2-dimethylpropanoyloxy)methyl]-1,2,4-triazolium chloride], the ED50 i.v. in experiment [1] was 1.5 µmol/kg. In experiment [2], this compound registered an ED50 p.o. of 1.8 µmol/kg.
With `CC(=O)OC[n+]1cnn(C[C@](O)(c2ccc(F)cc2F)[C@@H](C)N2CCN(c3ccc(-n4cnnn4)cc3)C2=O)c1.[Br-]` [Compound 11, 4-acetoxymethyl-1-[(2R,3R)-2-(2,4-difluorophenyl)-2-hydroxy-3-[2-oxo-3-[4-(1H-tetrazol-1-yl)phenyl]-1-imidazolidinyl]butyl]-1H-1,2,4-triazolium bromide], in experiment [3], the “Mean survival day … i.v.” value turned out to be 4.0 days; the “No. of survivors, i.v.” value is 2; the “Mean survival day … p.o.” value turned out to be 6.0 days; the “No. of survivors, p.o.” value is listed as 3.
On to `CC(=O)OC[n+]1cnn(C[C@](O)(c2ccc(F)cc2F)[C@@H](C)N2CCN(c3ccc(-n4cnnn4)cc3)C2=O)c1.[Cl-]` [Compound 12, 4-acetoxymethyl-1-[(2R,3R)-2-(2,4-difluorophenyl)-2-hydroxy-3-[2-oxo-3-[4-(1H-tetrazol-1-yl)phenyl]-1-imidazolidinyl]butyl]-1H-1,2,4-triazolium chloride], for which, in experiment [3], the “Mean survival day … i.v.” value is 4.5 days; the “No. of survivors, i.v.” value worked out at 3; the “Mean survival day … p.o.” value worked out at 5.0 days; the “No. of survivors, p.o.” value amounted to 4.
On to `CCC(=O)OC[n+]1cnn(C[C@](O)(c2ccc(F)cc2F)[C@@H](C)N2CCN(c3ccc(-n4cnnn4)cc3)C2=O)c1.[Cl-]` [Compound 14, 1-[(2R,3R)-2-(2,4-difluorophenyl)-2-hydroxy-3-[2-oxo-3-[4-(1H-tetrazol-1-yl)phenyl]-1-imidazolidinyl]butyl]-4-propanoyloxymethyl-1H-1,2,4-triazolium chloride], for which, in experiment [3], the “Mean survival day … i.v.” value was 4.5 days; the “No. of survivors, i.v.” value is given as 1; the “Mean survival day … p.o.” value came out at 6.0 days; the “No. of survivors, p.o.” value turned out to be 3.
On to `CCOC(=O)OC[n+]1cnn(C[C@](O)(c2ccc(F)cc2F)[C@@H](C)N2CCN(c3ccc(-n4cnnn4)cc3)C2=O)c1.[Cl-]` [Compound 16, 1-[(2R,3R)-2-(2,4-difluorophenyl)-2-hydroxy-3-[2-oxo-3-[4-(1H-tetrazol-1-yl)phenyl]-1-imidazolidinyl]butyl]-4-ethoxycarbonyloxymethyl-1H-1,2,4-triazolium chloride], for which, in experiment [3], the “Mean survival day … i.v.” value is 6.0 days; the “No. of survivors, i.v.” value is reported as 4; the “No. of survivors, p.o.” value was found to be 5.
Consider `CC(N1CCN(c2ccc(-n3cnnn3)cc2)C1=O)C(O)(Cn1cncn1)c1ccc(F)cc1F` (stereo not shown) [Reference compound (V), reference compound], for which, in experiment [3], the “Mean survival day … p.o.” value came to 4.3 days and the “No. of survivors, p.o.” value is on record as 2.
